# Measurements as given in ChEMBL document CHEMBL1201862, “PubChem BioAssay data set” (2004).
#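 The compound was tested at five concentrations on cells cultured in 96-well plates, with a 48-hour exposure period. The concentration for 50% growth inhibition is given as GI50.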 Activity calls are given as the source filed them. No stated cut-off is given here; in the data, active = GI50 up to about 1.1 µM and inactive = higher.
# Legend:
# Assay in all cases: growth of human tumour cells (NCI), 48 h
# [1] = system: 786-0
# [2] = system: A498
# [3] = system: ACHN
# [4] = system: BT-549
# [5] = system: CCRF-CEM
# [6] = system: DU-145
# [7] = system: EKVX
# [8] = system: HCT-116
# [9] = system: HCT-15
# [10] = system: HOP-62
# [11] = system: HOP-92
# [12] = system: HT-29
# [13] = system: IGROV-1
# [14] = system: KM12
# [15] = system: LOX IMVI
# [16] = system: M14
# [17] = system: MCF7
# [18] = system: MDA-MB-231
# [19] = system: MDA-MB-435
# [20] = system: MDA-N
# [21] = system: NCI-H460
# [22] = system: NCI/ADR-RES
# [23] = system: OVCAR-8
# [24] = system: PC-3
# [25] = system: RXF 393
# [26] = system: SF-268
# [27] = system: SF-295
# [28] = system: SK-MEL-28
# [29] = system: SK-MEL-2
# [30] = system: SK-OV-3
# [31] = system: SN12C
# [32] = system: SNB-19
# [33] = system: SNB-75
# [34] = system: T47D
# [35] = system: TK-10
# [36] = system: UACC-257
# [37] = system: UO-31
# [38] = system: A549
# [39] = system: CAKI-1
# [40] = system: COLO 205
# [41] = system: HCC 2998
# [42] = system: HL-60
# [43] = system: K562
# [44] = system: MOLT-4
# [45] = system: Malme-3M
# [46] = system: NCI-H226
# [47] = system: NCI-H23
# [48] = system: NCI-H522
# [49] = system: OVCAR-4
# [50] = system: OVCAR-5
# [51] = system: RPMI-8226
# [52] = system: SF-539
# [53] = system: SK-MEL-5
# [54] = system: SR
# [55] = system: SW-620
# [56] = system: U-251
# [57] = system: UACC-62
# [58] = system: OVCAR-3
structure (smiles),measurement,setting,value
Cc1c(F)c(N)c2c(=O)cc(-c3ccc(NC(=O)[C@@H](N)CCCCN)c(F)c3)oc2c1F,GI50,[1],9.31 µM (inactive)
same,GI50,[2],0.0537 µM (active)
same,GI50,[3],12.9 µM (inactive)
same,GI50,[4],24.4 µM (inactive)
same,GI50,[5],3.52 µM (inactive)
same,GI50,[6],13.7 µM (inactive)
same,GI50,[7],6.68 µM (inactive)
same,GI50,[8],2.88 µM (inactive)
same,GI50,[9],11.2 µM
same,GI50,[10],7.59 µM (inactive)
same,GI50,[11],18.6 µM (inactive)
same,GI50,[12],13.1 µM (inactive)
same,GI50,[13],0.0418 µM (active)
same,GI50,[14],9.33 µM (inactive)
same,GI50,[15],8.83 µM (inactive)
same,GI50,[16],16.4 µM (inactive)
same,GI50,[17],0.033 µM (active)
same,GI50,[18],13.2 µM (inactive)
same,GI50,[19],7.21 µM (inactive)
same,GI50,[20],7.26 µM (inactive)
same,GI50,[21],0.101 µM (active)
same,GI50,[22],21.4 µM (inactive)
same,GI50,[23],11 µM (inactive)
same,GI50,[24],15.3 µM (inactive)
same,GI50,[25],18.2 µM (inactive)
same,GI50,[26],11.9 µM (inactive)
same,GI50,[27],15.6 µM (inactive)
same,GI50,[28],13.2 µM (inactive)
same,GI50,[29],21.3 µM (inactive)
same,GI50,[30],15.1 µM (inactive)
same,GI50,[31],14.9 µM (inactive)
same,GI50,[32],18.4 µM (inactive)
same,GI50,[33],4.68 µM (inactive)
same,GI50,[34],0.159 µM (active)
same,GI50,[35],0.134 µM (active)
same,GI50,[36],0.242 µM (active)
same,GI50,[37],7.83 µM (inactive)
Cc1cn([C@@H]2C[C@H]2CO)c(=O)[nH]c1=O,GI50,[1],> 100 µM (inactive)
same,GI50,[2],> 100 µM (inactive)
same,GI50,[38],> 100 µM (inactive)
same,GI50,[3],> 100 µM (inactive)
same,GI50,[4],> 100 µM (inactive)
same,GI50,[39],> 100 µM (inactive)
same,GI50,[5],> 100 µM (inactive)
same,GI50,[40],> 100 µM (inactive)
same,GI50,[6],> 100 µM (inactive)
same,GI50,[7],> 100 µM (inactive)
same,GI50,[41],> 100 µM (inactive)
same,GI50,[8],> 100 µM (inactive)
same,GI50,[9],> 100 µM
same,GI50,[42],> 100 µM (inactive)
same,GI50,[10],> 100 µM (inactive)
same,GI50,[11],> 100 µM (inactive)
same,GI50,[12],> 100 µM (inactive)
same,GI50,[13],> 100 µM (inactive)
same,GI50,[43],> 100 µM (inactive)
same,GI50,[14],> 100 µM (inactive)
same,GI50,[15],> 100 µM (inactive)
same,GI50,[16],> 100 µM (inactive)
same,GI50,[17],> 100 µM (inactive)
same,GI50,[18],> 100 µM (inactive)
same,GI50,[19],> 100 µM (inactive)
same,GI50,[20],> 100 µM (inactive)
same,GI50,[44],> 100 µM (inactive)
same,GI50,[45],> 100 µM (inactive)
same,GI50,[46],> 100 µM (inactive)
same,GI50,[47],> 100 µM (inactive)
same,GI50,[21],> 100 µM (inactive)
same,GI50,[48],> 100 µM (inactive)
same,GI50,[22],> 100 µM (inactive)
same,GI50,[49],> 100 µM (inactive)
same,GI50,[50],> 100 µM (inactive)
same,GI50,[23],> 100 µM (inactive)
same,GI50,[24],> 100 µM (inactive)
same,GI50,[51],> 100 µM (inactive)
same,GI50,[25],> 100 µM (inactive)
same,GI50,[26],> 100 µM (inactive)
same,GI50,[52],57 µM (inactive)
same,GI50,[28],> 100 µM (inactive)
same,GI50,[29],> 100 µM (inactive)
same,GI50,[53],> 100 µM (inactive)
same,GI50,[31],> 100 µM (inactive)
same,GI50,[32],> 100 µM (inactive)
same,GI50,[33],> 100 µM (inactive)
same,GI50,[54],> 100 µM (inactive)
same,GI50,[55],> 100 µM (inactive)
same,GI50,[34],> 100 µM (inactive)
same,GI50,[35],> 100 µM (inactive)
same,GI50,[56],> 100 µM (inactive)
same,GI50,[36],> 100 µM (inactive)
same,GI50,[57],> 100 µM (inactive)
same,GI50,[37],80.4 µM (inactive)
Clc1ccc(OCc2nnc(CCCCCCCCc3nnc(COc4ccc(Cl)cc4)o3)o2)cc1,GI50,[1],31.8 µM (inactive)
same,GI50,[2],> 100 µM (inactive)
same,GI50,[38],72.1 µM (inactive)
same,GI50,[3],> 100 µM (inactive)
same,GI50,[4],> 100 µM (inactive)
same,GI50,[39],39.7 µM (inactive)
same,GI50,[40],> 100 µM (inactive)
same,GI50,[6],68.7 µM (inactive)
same,GI50,[7],> 100 µM (inactive)
same,GI50,[41],> 100 µM (inactive)
same,GI50,[8],10.5 µM (inactive)
same,GI50,[9],> 100 µM
same,GI50,[11],31.7 µM (inactive)
same,GI50,[12],> 100 µM (inactive)
same,GI50,[43],48.1 µM (inactive)
same,GI50,[14],> 100 µM (inactive)
same,GI50,[16],89.7 µM (inactive)
same,GI50,[17],28.2 µM (inactive)
same,GI50,[18],48 µM (inactive)
same,GI50,[19],> 100 µM (inactive)
same,GI50,[20],> 100 µM (inactive)
same,GI50,[44],14.8 µM (inactive)
same,GI50,[45],3.58 µM (inactive)
same,GI50,[46],> 100 µM (inactive)
same,GI50,[47],79.3 µM (inactive)
same,GI50,[21],> 100 µM (inactive)
same,GI50,[48],31.8 µM (inactive)
same,GI50,[22],> 100 µM (inactive)
same,GI50,[58],> 100 µM (inactive)
same,GI50,[49],> 100 µM (inactive)
same,GI50,[50],> 100 µM (inactive)
same,GI50,[24],> 100 µM (inactive)
same,GI50,[51],> 100 µM (inactive)
same,GI50,[25],47.3 µM (inactive)
same,GI50,[26],32.3 µM (inactive)
same,GI50,[27],> 100 µM (inactive)
same,GI50,[28],> 100 µM (inactive)
same,GI50,[29],> 100 µM (inactive)
same,GI50,[53],> 100 µM (inactive)
same,GI50,[30],57.8 µM (inactive)
same,GI50,[31],43.8 µM (inactive)
same,GI50,[32],34.1 µM (inactive)
same,GI50,[33],68.2 µM (inactive)
same,GI50,[55],> 100 µM (inactive)
same,GI50,[35],> 100 µM (inactive)
same,GI50,[56],29.4 µM (inactive)
same,GI50,[36],> 100 µM (inactive)
same,GI50,[57],> 100 µM (inactive)
same,GI50,[37],> 100 µM (inactive)
